# Biological target: T1, hKv7.2 and hKv7.3 (Kv7.2/7.3) (Homo sapiens, UniProt O43525+O43526)
# T1 construct: host or cells: HEK293
# Assay: Modulation of Kv7.2/7.3 conductance, automated electrophysiology (IonWorks Barracuda, population patch clamp) in HEK293 cells
# Assay type: cell-based
# Design: Voltage Shift ([…]V0.5), Mean: unit not given here
# Experimental: Modulation of Kv7.2/7.3 Conductance by Kv7 Potentiators in a Mammalian Expression System
# The potency and efficacy of Kv7 potentiators is assessed by automated electrophysiology on the IonWorks Barracuda (Molecular Devices) platform using the population patch clamp mode of the instrument.
# Cell Culture: HEK293 cells stably expressing hKv7.2 (under tetracycline induction) and hKv7.3 (Catalog #CT6147, Charles River) are used for these studies. Cells are maintained in a Dulbecco's modified Eagle's medium/nutrient mixture Ham's F-12 (Sigma-Aldrich) supplemented with 5% tetracycline-screened fetal bovine serum (Sigma-Aldrich), 15 mM HEPES, 500 μg/mL G418, 100 U/mL penicillin, 100 μg/mL streptomycin, […] L-glutamine, 100 μg/mL zeocin, and 5 μg/mL blasticidin. Expression of hKv7.2 is induced by addition of 1 μg/mL doxycycline 24 h prior to recordings.
# Cells are cultured in Corning T-150 flasks to a confluence of 85%-95%. At the start of an experiment, cells are washed once with D-PBS without calcium and magnesium and then dissociated by incubating in 3 ml of 0.25% trypsin for 8 min at 37° C. Cells ware resuspended in media, triturated gently, and centrifuged for 4 min at 1,000 rpm. Cells are resuspended in external solution to a final concentration of 2.5-3.5M cells/mL.
# Solutions: External solution w is composed of (in mM): 140 NaCl, 5 KCl, 2 CaCl2, 1 MgCl2, 10 HEPES, 10 Glucose, pH 7.4. Internal solution is composed of (in mM): 90 K-gluconate, 40 KCl, 3.2 EGTA, 3.2 MgCl2, 5 HEPES, pH 7.25. The membrane perforating agent amphotericin B is prepared daily as a 27 mg/mL stock solution in DMSO and then added to the internal solution to a final concentration of 0.1 mg/mL. Test article dilutions are prepared in 384-well plates from 10 mM DMSO stock solutions and diluted using acoustic dispensing (Labcyte ECHO®), such that final DMSO concentrations are 0.1%.
# Electrophysiological Recordings: Resuspended cells are placed on the IONWORKS® BARRACUDA™ (IWB) instrument, external solution is added to a 384-well patch plate, and a hole test is performed to determine blocked wells and offset voltages. Cells are then added to the patch plate (9 μL per well) by the instrument. Two seal tests are performed prior to introducing the perforating agent amphotericin in the internal solution and allowing approximately 8 min to obtain electrical access, which is verified by a third seal test. The command voltage protocol consists of a family of 1 sec voltages steps from −80 mV to +40 mV from a holding potential of −80 mV and is applied prior to (baseline) and 6 min after test article addition.
# Data Analysis: Data are acquired and leak subtracted using IWB software. Current amplitudes during the last 10 msec of each voltage step are averaged and exported. Further analysis is performed using Microsoft Excel and GraphPad Prism. Current amplitude is converted to conductance (G) by the following formula: G=I/(V−Ek) where I=current, V=step potential, Ek=potassium reversal potential (−84 mV). Conductance in the presence of test article is normalized to the baseline conductance at +40 mV for the same well. Conductance-voltage (G−V) curves are fitted with the Boltzmann equation y=Bottom+(Top−Bottom)/(1+EXP((Vm−V0.5/k)).
# Fitting a 4-parameter logistic equation to the data may be used to determine the potency (EC50) and efficacy (maximal shift) for each test compound.
# [1] = 4-parameter logistic fit of voltage shift data
structure (smiles),measurement,setting,value
"CC(C)(C)[C@H](O)CNC(=O)NCc1ccnc(OCC(F)(F)F)c1 [Example 1, 1-[(2S)-2-hydroxy-3,3-dimethyl-butyl]-3-[[2-(2,2,2-trifluoroethoxy)-4-pyridyl]methyl]urea]","Voltage Shift ([…]V0.5), Mean",0.0005 μM,2.6
same,"Voltage Shift ([…]V0.5), Mean",0.0015 μM,2.0
same,"Voltage Shift ([…]V0.5), Mean",0.005 μM,3.0
same,"Voltage Shift ([…]V0.5), Mean",0.01 μM,1.6
same,"Voltage Shift ([…]V0.5), Mean",0.04 μM,1.3
same,"Voltage Shift ([…]V0.5), Mean",0.12 μM,0.0
same,"Voltage Shift ([…]V0.5), Mean",0.37 μM,−3.5
same,"Voltage Shift ([…]V0.5), Mean",1.11 μM,−13.2
same,"Voltage Shift ([…]V0.5), Mean",3.33 μM,−28.0
same,"Voltage Shift ([…]V0.5), Mean","10 μM, difference from control in voltage at half-maximal conductance",−38.0
same,Maximal Shift (efficacy),[1],−44
same,Slope,[1],1.2
same,EC50,"4-parameter logistic fit of voltage shift data, read-out: EC50 (potency of V0.5 shift)",2000 nM

# From patent publication US12344584B2, “KCNQ potentiators” (Eli Lilly and Company, priority 2019, dated 2025)
